Data published in paper PMC3606118, “Salvianolic Acid A, a Novel Matrix Metalloproteinase-9 Inhibitor, Prevents Cardiac Remodeling in Spontaneously Hypertensive Rats” (PLoS ONE, 2013).

Key:
MMP-9 CD [1] = target: T1, MMP-9 CD (Homo sapiens, UniProt P14780, DEL217-390); assay: Real time binding by surface plasmon resonance (Biacore); details: for Kd: steady state affinity fit model, immobilized MMP-9 CD, 25°C, read-out: equilibrium dissociation constant (KD); for binding on MMP-9 CD: surface plasmon resonance
T1 construct: corresponding to residues 107–216 and 391–444; made in house
T1 sequence (P14780 with tags, fused parts or gaps DEL217-390 limits assumed): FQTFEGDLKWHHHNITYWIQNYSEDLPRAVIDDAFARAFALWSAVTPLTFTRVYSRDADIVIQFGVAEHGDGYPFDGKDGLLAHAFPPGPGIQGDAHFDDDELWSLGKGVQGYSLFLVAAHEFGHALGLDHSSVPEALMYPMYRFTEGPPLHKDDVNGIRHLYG
Procedure: DNA fragments encoding the catalytic domain of MMP-9 (MMP-9 CD, corresponding to residues 107–216 and 391–444) were constructed and subcloned into a pET-15b vector (Novagen). […]. Surface plasmon resonance analysis was performed using Biacore 3000 (Biacore AB). In brief, MMP-9 CD protein (5.8 µmol/L) in 10 mmol/L sodium acetate buffer (pH 3.73) was covalently immobilized on the hydrophilic carboxymethylated dextran matrix of the CM5 sensor chip (BIAcore AB) using standard primary amine coupling procedure. Phenolic acid at various concentrations in HBS-EP running buffer (10 mmol/L HEPES pH 7.4, 150 mmol/L NaCl, 3.4 mmol/L EDTA and 0.005% surfactant P20) were injected at a constant flow rate of 30 µL/min at 25°C. All data were analyzed by BIAevaluation software and the sensorgrams were processed by automatic correction for nonspecific bulk refractive index effects.

MMP-9 CD [2] = target: T1, MMP-9 CD; assay: MMP-9 inhibition assay (thiopeptolide, enzyme kinetic analysis); type: biochemical; details: for Ki: spectrophotometric enzyme kinetic assay, thiopeptolide substrate; for inhibition on MMP-9 CD: enzyme kinetic assay
Procedure: Phenolic acids at the indicated concentrations were incubated with the reaction mixtures contained MMP-9 CD (15 nmol/L) and 5,5′-dithiobis-(2-nitrobenzoic acid) (1 mmol/L) at 4°C for 30 min. The reaction was initiated by the addition of thiopeptolide (Ac-Pro-Leu-Gly-S-Leu-Leu-Gly-OEt). Hydrolysis of thiopeptolide was monitored at 412 nm using Benchmark Plus™ microplate spectrophotometer (Bio-Rad) at room temperature. Kinetic analysis of phenolic acids against MMP-9 CD was calculated using double reciprocal plots of 1/V versus 1/[thiopeptolide]. The slope of every double reciprocal plot is the Km ^app/Vmax of enzyme at different compound concentration. Secondary plot was drawn through Km ^app/Vmax versus compound concentration. Km ^app is apparent value of Km; Ki is inhibition constant; Ki was calculated using the equation Ki = [Km/Vmax][compound]/(Km ^app/Vmax –Km/Vmax).

Kd (MMP-9 CD [1]) [µM] | Ki (MMP-9 CD [2]) [µM] | binding on MMP-9 CD (MMP-9 CD [1]) | inhibition on MMP-9 CD (MMP-9 CD [2]) | SMILES
10.7 | 126 ± 8.73 |  |  | O=C(/C=C/c1ccc(O)c(O)c1)O[C@H](Cc1ccc(O)c(O)c1)C(=O)O [rosmarinic acid]
 |  | Neither binding nor inhibition was found | Neither binding nor inhibition was found | O=Cc1ccc(O)c(O)c1 [protocatechualdehyde]

Second part, the molecule before the results:

SMILES | Kd (MMP-9 CD [1]) [µM] | Ki (MMP-9 CD [2]) [µM] | binding on MMP-9 CD (MMP-9 CD [1]) | inhibition on MMP-9 CD (MMP-9 CD [2])
O=C(O)[C@H](O)Cc1ccc(O)c(O)c1 [danshensu] |  |  | Neither binding nor inhibition was found | Neither binding nor inhibition was found
O=C(/C=C/c1ccc(O)c2c1[C@H](C(=O)O)[C@@H](c1ccc(O)c(O)c1)O2)O[C@H](Cc1ccc(O)c(O)c1)C(=O)O [lithospermic acid] | 66.2 | 324 ± 132 |  | 
O=C(/C=C/c1ccc(O)c2oc(-c3ccc(O)c(O)c3)cc12)O[C@H](Cc1ccc(O)c(O)c1)C(=O)O [SalC, salvianolic acid C] | 1.13 | 110 ± 33.1 |  | 
